Results on two molecules are retold here after PubChem BioAssay (NCI).

Structures are written as SMILES.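 Tested at 5 concentrations; 48 h exposure; 96-well plates; endpoints linearly interpolated, else capped at highest concentration. TGI: total growth inhibition.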

Test systems include DLD-1 colon; HOP-18 NSCLC; KM20L2 colon; LXFL 529 NSCLC; SNB-78 CNS; M19-MEL melanoma; XF 498 CNS.
Common to all, as to experiment: inhibition of tumour cell growth, NCI panel, 48 h

As for `C\C=C/C=C/C=C/C(=O)O`, the TGI in the assay on DLD-1 colon, with HOP-18 NSCLC, in the assay on KM20L2 colon, in the assay on LXFL 529 NSCLC and in the assay with SNB-78 CNS was greater than 100 µM in each case.

Turning to `O=C(Nc1ccc(Cl)cc1)c1cccc([N+](=O)[O-])c1O`, the TGI with DLD-1 colon is greater than 100 µM; with HOP-18 NSCLC, greater than 100 µM; in the assay with KM20L2 colon it was 98.5 µM; with LXFL 529 NSCLC, 39.8 µM; in the assay with M19-MEL melanoma it was 9.07 µM; in the assay on SNB-78 CNS, greater than 37.5 µM. The molecule also displayed a TGI in the assay on XF 498 CNS of 8.31 µM.
